Measurements reported in PubChem BioAssay (NCI).
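96-well plates; 48 h exposure; 5 concentrations. Endpoints by linear interpolation between flanking doses. Not reached: highest tested concentration assigned. TGI: concentration producing complete growth inhibition.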

How the values were obtained:
Assay in all cases: DTP human tumour cell line panel, 48 h
SK-MEL-5 melanoma = test system: SK-MEL-5 melanoma
HOP-62 NSCLC = test system: HOP-62 NSCLC
A549 NSCLC = test system: A549 NSCLC
NCI-H460 lung = test system: NCI-H460 lung
ACHN renal = test system: ACHN renal
SR leukemia = test system: SR leukemia
HCC-2998 colon = test system: HCC-2998 colon
SF-268 CNS = test system: SF-268 CNS
SF-295 CNS = test system: SF-295 CNS
LOX IMVI melanoma = test system: LOX IMVI melanoma

Structure (SMILES) | TGI (SK-MEL-5 melanoma) [µM] | TGI (HOP-62 NSCLC) [µM] | TGI (A549 NSCLC) [µM] | TGI (NCI-H460 lung) [µM] | TGI (ACHN renal) [µM] | TGI (SR leukemia) [µM] | TGI (HCC-2998 colon) [µM] | TGI (SF-268 CNS) [µM] | TGI (SF-295 CNS) [µM] | TGI (LOX IMVI melanoma) [µM]
O=C(NNC(=S)Nc1ccc(Cl)cc1)c1cc(-c2ccccc2)nc2ccccc12 | 16.4 | 19.6 | 21.3 | 25.6 | 22.7 | 4.72 | 11.5 | 29.6 | 9.22 | 
Nc1ccc2nc(-c3ccccn3)c(-c3ccccn3)nc2c1 | > 100 |  | > 100 | > 100 | > 100 | > 100 | > 100 | > 100 | > 100 | > 100
Cc1c(-c2nc3ccccc3[nH]2)c(=O)n(-c2ccccc2)n1C | > 100 | > 100 | > 100 | > 100 | > 100 |  | > 100 | > 100 | > 100 | > 100
C=C(C)C12CC(COC(=O)c3ccccc3)C34OC5(OC1C3C1OC1(CO)C(O)C1(O)C(OC(=O)c3ccccc3)C(C)C(C(C)CCCCCCC5O)C14)O2 (stereo not drawn) | > 100 |  |  | > 100 | > 100 | > 31.6 | > 64.8 | > 100 | > 100 | > 100
COc1cc(/C=C2/C(=O)N(C(=O)c3ccccc3O)N=C2C)cc(OC)c1OC | 33.6 |  | > 100 | > 100 | > 100 |  | > 87.8 | > 100 | > 100 | > 100
Cc1nc(-c2ccc([N+](=O)[O-])cc2)cn2c1nc1ccccc12 |  | > 100 | > 100 | > 100 |  | > 100 |  | > 100 | > 100 | > 100
CN1C(=O)C2C(=O)N(Cc3ccccc3)CC(=O)N2c2cccnc21 (stereo not drawn) | > 100 | > 100 | > 100 | > 100 | > 100 | > 100 |  | > 100 | > 100 | > 100
CC(C)=CCOC(=O)C(C)=[N+]=[N-] | > 100 | > 100 |  | > 100 | > 100 | > 100 | > 100 | > 100 | > 100 | > 100
Cc1cc(N(CCC#N)CCC#N)ccc1/C=N/NC(=O)c1cc(Cl)ccc1O | > 100 | > 100 | > 100 | > 100 |  | > 100 | > 100 | > 100 | > 100 | 
Cc1nnc(Nc2ccccc2)o1 | > 100 |  | > 100 |  | > 100 | > 100 |  | > 100 | > 100 | > 100
CCN(CC)CCc1c2c(nc3ccccc13)C(=O)c1cccnc1C2=O | 1.34 | 11.8 | 8.65 |  |  | 0.993 | 7.55 | > 100 | 5.41 | 2.31
c1ccc2c(c1)OC(N1CCCC1)c1cnc(N3CCCC3)nc1-2 (stereo not drawn) |  | > 100 | > 100 | > 100 | > 100 | > 100 |  | > 100 | 82.1 | > 100
NC(N)=NS(=O)(=O)c1ccc(NCc2c3ccccc3[n+]([O-])c3ccccc23)cc1 | 33.5 | > 100 | > 100 | > 100 | 70.4 |  | > 100 | 86.6 | > 100 | 90.9
O=C(O)CSc1nnc(COc2ccc(Cl)cc2)n1-c1ccccc1 |  | > 100 | > 100 | > 100 | > 100 |  | > 100 | > 100 | > 100 | > 100
Cc1ccc(-c2c(C#N)c(-c3ccccc3)n(NS(=O)(=O)c3ccccc3)c(=O)c2C#N)cc1 | > 100 | > 100 | > 100 | > 100 | > 100 |  | > 100 | > 100 | > 100 | > 100
CCOC(=O)C1Cc2[nH]c3ccccc3c2C(C)C1C (stereo not drawn) | 26.9 |  | 34.8 | 33.2 | 39.8 | 41.2 |  | 47.5 | 42.3 | 28.2
CSc1nc(Cl)c2c(n1)Sc1nc3cc4c(cc3n1C2O)OCCO4 (stereo not drawn) |  | 23 | 14 | 2.39 | 26.8 |  | 12.1 | 80.3 | 38.5 | 0.392
O=C(CN1c2ccccc2Sc2ccccc21)N1CCNCC1 | > 100 | > 100 | > 100 | > 100 | > 100 |  |  | > 100 | > 100 | > 100
CCOC(=O)CNC(=O)C(CSCc1ccc(Br)cc1)NC(=O)CCC(N)C(=O)OCC (stereo not drawn) | > 50 | > 50 | > 50 | > 50 | > 50 | > 50 | > 50 | > 50 | > 50 | 
CCN1CC2=C(NC(=S)NC2c2ccc(Cl)cc2)/C(=C/c2ccc(Cl)cc2)C1 (stereo not drawn) | > 100 | > 100 | > 100 | 45.8 | > 100 |  | > 100 | > 100 | > 100 | > 100
Nc1cc(CO)cc(Nc2nc3ccc(Cl)cc3c3[nH]c4ccccc4c23)c1 |  | 27.6 | 57.3 | 6.56 | 15 | 7.33 |  | 10.5 | 15 | 
COc1ccc(C(C#N)NNC(=O)c2ccccc2O)cc1OC (stereo not drawn) | 46.9 | > 100 | > 100 | > 100 | 96.6 | > 100 |  | > 100 | > 100 | 59.3
